Among the data in US20230365571A1, “COMPOUNDS AND COMPOSITIONS AS Sppl2a INHIBITORS” (Novartis AG, priority 2020, published 2023) are IC50 values, retold here.

A word on the IC50: it is the midpoint of a concentration-inhibition curve. A lower IC50 goes with greater potency in that assay.

For assay [1], the target named is T1, human SPPL2a (Homo sapiens, UniProt Q8TCT8).
T1 sequence (Q8TCT8 26-520): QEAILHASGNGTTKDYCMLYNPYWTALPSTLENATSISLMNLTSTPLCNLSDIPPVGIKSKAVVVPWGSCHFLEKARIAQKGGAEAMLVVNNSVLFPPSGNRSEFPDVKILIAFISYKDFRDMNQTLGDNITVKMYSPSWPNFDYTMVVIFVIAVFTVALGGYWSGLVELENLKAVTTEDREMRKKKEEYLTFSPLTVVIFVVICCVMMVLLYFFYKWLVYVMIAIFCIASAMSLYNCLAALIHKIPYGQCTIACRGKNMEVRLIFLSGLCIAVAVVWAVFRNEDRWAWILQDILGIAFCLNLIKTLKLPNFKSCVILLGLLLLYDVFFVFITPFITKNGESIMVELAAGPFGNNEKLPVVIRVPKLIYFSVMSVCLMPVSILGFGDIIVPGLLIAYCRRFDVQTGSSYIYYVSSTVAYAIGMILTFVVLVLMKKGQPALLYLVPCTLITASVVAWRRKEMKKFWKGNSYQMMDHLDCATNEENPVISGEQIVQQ
Nature of the assay: Sppl2a RGA (reporter gene assay) in HEK293 cells. In kind it is cell-based. Set-up: expressed in transfected cells; host or cells: HEK293 (transient). Particulars: NT-TNF-VP16-Gal4 substrate, Gal4-luciferase reporter, 24 h. A digest of the protocol: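 HEK293 cells transiently co-transfected with human SPPL2a, NT-TNF-VP16-Gal4 substrate and Gal4-luciferase reporter, compound added within 5 h. After 24 h at 37 °C, luciferase luminescence measured; IC50 from concentration versus normalized luminescence.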

Assay [2] has as its target T1, human SPPL2a. Nature of the assay: Sppl2a TL (translocation) imaging assay in U-2 OS cells. In kind it is cell-based. Set-up: expressed in transfected cells. Particulars: U-2 OS cells expressing human SPPL2a and EGFP-TNFα(aa1-76) NTF substrate; 24 h. A digest of the protocol: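 U-2 OS cells stably expressing human SPPL2a plus doxycycline-induced EGFP-TNFα(aa1-76) NTF, treated 24 h at 37 °C with inhibitor (100 μM–1 nM, 11 points, 0.9% DMSO, 5 μg/mL doxycycline). Imaging of nuclear-minus-cytoplasmic EGFP intensity; % inhibition versus 0.5 μM LY-411,575 and DMSO, IC50 by nonlinear regression; CC50 from cell count.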

Regarding `CCc1cc(-c2cc(NC(=O)C[C@@H](C)C(=O)N[C@@H]3C(=O)N4CCCN4Cc4ccccc43)n(C)n2)on1` [Example 86, (R)-NA-(3-(3-Ethylisoxazol-5-yl)-1-methyl-1H-pyrazol-5-yl)-2-methyl-N^1-((S)-11-oxo-2,3,10,11-tetrahydro-1H,5H-benzo[d]pyrazolo [1,2-a][1,2]diazepin-10-yl)succinamide], the values for the IC50 against human SPPL2a [1] and against human SPPL2a [2] were 4 nM and 10 nM, respectively.
The like results for `C[C@H](CC(=O)Nc1cc(-c2ccc(F)cn2)nn1C)C(=O)N[C@@H]1C(=O)N2CCCN2Cc2ccccc21` [Example 87, (R)-N^4-(3-(5-Fluoropyridin-2-yl)-1-methyl-1H-pyrazol-5-yl)-2-methyl-N^1-((S)-11-oxo-2,3,10,11-tetrahydro-1H,5H-benzo[d]pyrazolo [1,2-a][1,2]diazepin-10-yl)succinamide] were, in that order, 10 nM and 10 nM.
The like results for `C[C@H](CC(=O)Nc1cn(-c2ccc(C(F)(F)F)nc2)nc1Cl)C(=O)N[C@@H]1C(=O)N2CCCN2Cc2ccccc21` [Example 88, (R)-N^4-(3-Chloro-1-(6-(trifluoromethyl)pyridin-3-yl)-1H-pyrazol-4-yl)-2-methyl-N^1-((S)-11-oxo-2,3,10,11-tetrahydro-1H,5H-benzo[d]pyrazolo [1,2-a][1,2]diazepin-10-yl)succinamide] were, in that order, 7 nM and 10 nM.
The like results for `Cc1nn(-c2ccc(C(F)(F)F)nc2)cc1NC(=O)C[C@@H](C)C(=O)N[C@@H]1C(=O)N2CCCN2Cc2ccccc21` [Example 92, (R)-2-Methyl-N^4-(3-methyl-1-(6-(trifluoromethyl)pyridin-3-yl)-1H-pyrazol-4-yl)-N^1-((S)-11-oxo-2,3,10,11-tetrahydro-1H,5H-benzo[d]pyrazolo [1,2-a][1,2]diazepin-10-yl)succinamide] were, in that order, 11 nM and 12 nM.
With `C[C@H](CC(=O)Nc1sc(-c2cnn(C3COC3)c2)nc1Cl)C(=O)N[C@@H]1C(=O)N2CCCN2Cc2ccccc21` [Example 95, (R)-N^4-(4-Chloro-2-(1-(oxetan-3-yl)-1H-pyrazol-4-yl)thiazol-5-yl)-2-methyl-N^1-((S)-11-oxo-2,3,10,11-tetrahydro-1H,5H-benzo[d]pyrazolo [1,2-a][1,2]diazepin-10-yl)succinamide], the IC50 against human SPPL2a [1] came out at 23 nM; against human SPPL2a [2], 12 nM.
The like results for `C[C@H](CC(=O)Nc1cc(-c2ccco2)nn1C1CC1)C(=O)N[C@@H]1C(=O)N2CCCN2Cc2ccccc21` [Example 96, (R)-N^4-(1-Cyclopropyl-3-(furan-2-yl)-1H-pyrazol-5-yl)-2-methyl-N^1-((S)-11-oxo-2,3,10,11-tetrahydro-1H,5H-benzo[d]pyrazolo [1,2-a][1,2]diazepin-10-yl)succinamide] were, in that order, 28 nM and 12 nM.
Taken in the same sequence, the figures for `COc1ccc(-c2cc(NC(=O)C[C@@H](C)C(=O)N[C@@H]3C(=O)N4CCCN4Cc4ccccc43)n(C)n2)cn1` [Example 97, (R)-N^4-(3-(6-Methoxypyridin-3-yl)-1-methyl-1H-pyrazol-5-yl)-2-methyl-N^1-((S)-11-oxo-2,3,10,11-tetrahydro-1H,5H-benzo[d]pyrazolo [1,2-a][1,2]diazepin-10-yl)succinamide] were 15 nM and 13 nM.
Taken in the same sequence, the figures for `C[C@H](CC(=O)Nc1cc(-c2cncc(C(F)(F)F)c2)nn1C)C(=O)N[C@@H]1C(=O)N2CCCN2Cc2ccccc21` [Example 98, (R)-2-Methyl-N^4-(1-methyl-3-(5-(trifluoromethyl)pyridin-3-yl)-1H-pyrazol-5-yl)-N^1-((S)-11-oxo-2,3,10,11-tetrahydro-1H,5H-benzo[d]pyrazolo [1,2-a][1,2]diazepin-10-yl)succinamide] were 8 nM and 14 nM.
With `O=C(C[C@H](C(=O)N[C@@H]1C(=O)N2CCCN2C(=O)c2ccccc21)C1CC1)Nc1sc(-c2cnn(C(F)F)c2)nc1Cl` [Example 104, (S)-N^4-(4-Chloro-2-(1-(difluoromethyl)-1H-pyrazol-4-yl)thiazol-5-yl)-2-cyclopropyl-N^1-((S)-5,11-dioxo-2,3,10,11-tetrahydro-1H,5H-benzo[d]pyrazolo [1,2-a][1,2]diazepin-10-yl)succinamide], the IC50 against human SPPL2a [1] and on human SPPL2a [2] was 17 nM in each case.
As to `Cc1ccc(-c2cc(NC(=O)C[C@@H](C)C(=O)N[C@@H]3C(=O)N4CCCN4Cc4ccccc43)n(C)n2)cn1` [Example 105, (R)-2-Methyl-N^4-(1-methyl-3-(6-methylpyridin-3-yl)-1H-pyrazol-5-yl)-N^1-((S)-11-oxo-2,3,10,11-tetrahydro-1H,5H-benzo[d]pyrazolo [1,2-a][1,2]diazepin-10-yl)succinamide], the IC50 against human SPPL2a [1] amounted to 23 nM; on human SPPL2a [2] it was 18 nM.
Taken in the same sequence, the figures for `O=C(C[C@H](C(=O)N[C@@H]1C(=O)N2CC3(CC3)CN2C(=O)c2ccccc21)C1CC1)Nc1sc(-c2ccc(C(F)(F)F)nc2)nc1Cl` [Example 106, (S)-N^4-(4-Chloro-2-(6-(trifluoromethyl)pyridin-3-yl)thiazol-5-yl)-2-cyclopropyl-N^1-((S)-5,11-dioxo-10,11-dihydro-1H,3H,5H-spiro[benzo[d]pyr-azolo[1,2-a][1,2]diazepine-2,1′-cyclopropan]-10-yl)succinamide] were 8 nM and 10 nM.
Taken in the same sequence, the figures for `O=C(C[C@H](C(=O)N[C@@H]1C(=O)N2CCCN2C(=O)c2ccccc21)C1CC1)Nc1sc(-c2ccc(C(F)(F)F)nc2)nc1Cl` [Example 107, (S)-N^4-(4-Chloro-2-(6-(trifluoromethyl)pyridin-3-yl)thiazol-5-yl)-2-cyclopropyl-N^1-((S)-5,11-dioxo-2,3,10,11-tetrahydro-1H,5H-benzo[d]pyrazolo [1,2-a][1,2]diazepin-10-yl)succinamide] were 11 nM and 15 nM.
Taken in the same sequence, the figures for `C[C@H](CC(=O)Nc1sc(-c2ccc(C(F)(F)F)nc2)nc1Cl)C(=O)N[C@@H]1C(=O)N2CCCN2Cc2ccccc21` [Example 108, (R)-N^4-(4-Chloro-2-(6-(trifluoromethyl)pyridin-3-yl)thiazol-5-yl)-2-methyl-N^1-((S)-11-oxo-2,3,10,11-tetrahydro-1H,5H-benzo[d]pyrazolo [1,2-a][1,2]diazepin-10-yl)succinamide] were 3 nM and 3 nM.
Consider `C[C@H](CC(=O)Nc1cc(C(=O)Nc2ccccc2F)nn1C)C(=O)N[C@@H]1C(=O)N2CCCN2Cc2ccccc21` [Example 109, (R)—N^4-(3-((2-fluorophenyl)carbamoyl)-1-methyl-1H-pyrazol-5-yl)-2-methyl-N^1—((S)-11-oxo-2,3,10,11-tetrahydro-1H,5H-benzo[d]pyrazolo[1,2-a][1,2]diazepin-10-yl)succinamide], for which the IC50 worked out at 3 nM on human SPPL2a [1] and 2 nM on human SPPL2a [2].
Turning to `Cc1cccc(C)c1NC(=O)c1cc(NC(=O)C[C@@H](C)C(=O)N[C@@H]2C(=O)N3CCCN3Cc3ccccc32)n(C)n1` [Example 110], the IC50 stood at 20 nM on human SPPL2a [1] and 15 nM at human SPPL2a [2].
Taken in the same sequence, the figures for `C[C@H](Cc1nc2ccccc2[nH]1)C(=O)N[C@@H]1C(=O)N2CCCN2Cc2ccccc21` [Example 111, (R)-3-(1H-benzo[d]imidazol-2-yl)-2-methyl-N—((S)-11-oxo-2,3,10,11-tetrahydro-1H,5H-benzo[d]pyrazolo[1,2-a][1,2]diazepin-10-yl)propanamide] were 77 nM and 666 nM.
The like results for `Cc1cccc2nc(C[C@@H](C)C(=O)N[C@@H]3C(=O)N4CCCN4Cc4ccccc43)[nH]c12` [Example 112, (R)-2-methyl-3-(7-methyl-1H-benzo[d]imidazol-2-yl)-N-((S)-11-oxo-2,3,10,11-tetrahydro-1H,5H-benzo[d]pyrazolo[1,2-a][1,2]diazepin-10-yl)propanamide] were, in that order, 28 nM and 139 nM.
The like results for `C[C@H](Cc1nc2cccc(Br)c2[nH]1)C(=O)N[C@@H]1C(=O)N2CCCN2Cc2ccccc21` [Example 113, (R)-3-(7-bromo-1H-benzo[d]imidazol-2-yl)-2-methyl-N-((S)-11-oxo-2,3,10,11-tetrahydro-1H,5H-benzo[d]pyrazolo[1,2-a][1,2]diazepin-10-yl)propanamide] were, in that order, 42 nM and 180 nM.
With `C[C@H](Cc1nc2cccc(C(F)(F)F)c2[nH]1)C(=O)N[C@@H]1C(=O)N2CCCN2Cc2ccccc21` [Example 114, (R)-2-methyl-N-((S)-11-oxo-2,3,10,11-tetrahydro-1H,5H-benzo[d]pyrazolo[1,2-a][1,2]diazepin-10-yl)-3-(7-(trifluoromethyl)-1H-benzo[d]imidazol-2-yl)propanamide], the IC50 against human SPPL2a [1] came out at 63 nM; on human SPPL2a [2] it was 548 nM.
